# Laboratory results as given in patent publication US20090028816A1, “Treatment of depression, psychosis, and anxiety” (priority 2007, published 2009).
# Test: Range-finding tolerability and efficacy studies in neurological models
# Type: in vivo
# Conditions: intraperitoneally at dose levels up to 15 mg/kg twice a day (bid) for multiple days
# Description: Ibudilast is obtained as a pure powder from Sigma (St. Louis, Mo.) or Haorui Pharma (Edison, N.J.) and prepared daily as a solution for intraperitoneal or oral administration. Previous range-finding tolerability and efficacy studies in neurological models indicate that ibudilast is well-tolerated intraperitoneally at dose levels up to 15 mg/kg twice a day (bid) for multiple days. An appropriate amount of ibudilast is dissolved in 100% […] (PEG) 400 (Sigma) and then diluted down to a final concentration of 35% PEG400 in sterile saline (0.9% for injection). Drug stability and concentration are validated by HPLC/MS/MS.
compound,measurement,value
"CC(C)C(=O)c1c(C(C)C)nn2ccccc12 [Ibudilast, 3-isobutyryl-2-isopropylpyrazolo[1,5-a]pyridine]","tolerability, intraperitoneal",well-tolerated
